Experimental data as given in US20220386611A1, “NOVEL HETEROARYL-TRIAZOLE COMPOUNDS AS PESTICIDES” (Bayer Aktiengesellschaft, priority 2019, published 2022).

How the values were obtained:
Type in all cases: in vivo
[1] = test system: cattle ticks (Rhipicephalus microplus) strain Parkhurst, SP-resistant; experiment: Rhipicephalus (Boophilus) microplus dip test; conditions: 100 ppm, after 7 days
Protocol: Rhipicephalus (Boophilus) microplus—Dip Test
Test animal: cattle ticks (Rhipicephalus microplus) strain Parkhurst, SP-resistant
Solvent: dimethyl sulfoxide
To produce a suitable preparation of active compound, 10 mg of active compound are dissolved in 0.5 mL solvent, and the concentrate is diluted with water to the desired concentration.
This compound solution is pipetted into tubes. 8-10 engorged, adult, female cattle ticks (Rhipicephalus microplus) are placed in perforated tubes. These tubes are immersed in the aqueous compound solution until the ticks are completely moistened. After the liquid has drained off, the ticks are transferred to a filter paper in a plastic tray and stored in a climate chamber.
After 7 days egg deposition of fertile eggs is monitored. Eggs where fertility is not visible are stored in a climate chamber till hatching after about 42 days. An efficacy of 100% means all eggs are infertile; 0% means all eggs are fertile.

[2] = test system: adult engorged female ticks (Rhipicephalus microplus); experiment: Rhipicephalus (Boophilus) microplus injection test; conditions: 168 h, after 7 days, read-out: efficacy (infertile eggs); for pest or weed control at 0.004 mg: 4 μg/animal
Summary of the method: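 Compound in DMSO (10 mg per 0.5 mL, then diluted with DMSO to test concentration); 1 μL injected into the abdomen of each of five engorged females, then held in a climate chamber. Fertile egg deposition checked at 7 days; efficacy 100% = all eggs infertile, 0% = all fertile.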

[3] = test system: larvae of the banded cucumber beetle (Diabrotica balteata); experiment: Diabrotica balteata spray test; conditions: 168 h, 100 g/ha (=32 μg/well), after 7 days, wheat seeds, read-out: efficacy (seedlings grown like untreated, uninfected control)
Summary of the method: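 Germinated wheat seedlings sprayed with compound in acetone/DMF with emulsifier-containing water, then infested with 10-20 Diabrotica balteata larvae per unit. Efficacy scored after 7 days as seedling growth relative to untreated, uninfested control (100%) versus no growth (0%).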

[4] = test system: fall armyworm larvae (Spodoptera frugiperda); experiment: Spodoptera frugiperda spray test; conditions: in Zea mays, 168 h
Protocol: Spodoptera frukiperda—Spray Test
Solvent: 78.0 parts by weight acetone • 1.5 parts by weight dimethylformamide
Emulsifier: alkylarylpolyglycol ether
To produce a suitable preparation of active compound, 1 part by weight of active compound is mixed with the stated amount of solvents and is diluted with water, containing an emulsifier concentration of 1000 ppm, to the desired concentration. Further test concentrations are prepared by dilution with emulsifier containing water.
Maize (Zea mays) leaf sections are sprayed with a preparation of the active ingredient of the desired concentration. Once dry, the leaf sections are infested with fall armyworm larvae (Spodoptera frugiperda).
After 7 days mortality in % is determined. 100% means all caterpillars have been killed and 0% means none of the caterpillars have been killed.

[5] = test system: Blattella germanica strain PAULINIA; experiment: Blattella germanica test (BLTTGE surface treatment & contact assay); conditions: surface concentration 20 mg/m^2, 30 minutes exposure, 24 hours after contact, read-out: efficacy (mortality)
Protocol: Blattella germanica Test (BLTTGE Surface Treatment & Contact Assay)
Solvent: Aceton+2000 ppm rapeseed oil methyl ester (RME)
In order to produce a sufficient, active ingredient containing solution it is necessary to solve the test compound in the solvent-mix (acetone at 2 mg/ml/RME 2000 ppm). This solution is pipetted onto a glazed tile and after evaporation of the acetone, adult animals of the species Blattella germanica strain PAULINIA are placed onto the dried surface. The exposure time is 30 minutes. Mortality in percent (%) is determined 24 hours after contact of the insects to the treated surface. 100% mortality means that all tested insects are dead, whereas 0% means that no insect died.

[6] = test system: green peach aphid (Myzus persicae); experiment: Myzus persicae spray test; conditions: foliar, 120 h, after 5 days, Chinese cabbage leaf disks
Summary of the method: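 Chinese cabbage leaf disks infested with all instars of Myzus persicae were sprayed with compound formulated in acetone/dimethylformamide and diluted in water containing 1000 ppm emulsifier. Percent mortality was scored after 5 days.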

Structure (SMILES): CC(NC(=O)c1cc(C(F)(F)F)cc(C(F)(F)F)c1)c1nc(Cl)nn1-c1ncccn1 (centres unmarked) [Example I-002]
- efficacy (infertile eggs) [1]: 80%
- pest or weed control at 0.004 mg [2]: 100%
- pest or weed control at 0.02 mg ([2]; 20 μg/animal): 100%
- pest or weed control at 32 µg/disc, 100 g/ha [3]: 100%
- mortality at 100 g/ha [4]: 100%
- mortality at 20 mg/m2 [5]: 80 to 100%

Structure (SMILES): CC(NC(=O)c1cc(C(F)(F)F)cc(C(F)(F)F)c1)c1nc(Br)nn1-c1ncccn1 (centres unmarked) [Example I-010]
- pest or weed control at 0.004 mg [2]: 100%
- pest or weed control at 32 µg/disc, 100 g/ha [3]: 80%
- mortality at 100 g/ha [6]: 90%
- mortality at 100 g/ha [4]: 100%

Structure (SMILES): CC(NC(=O)c1cc(C(F)(F)F)cc(C(F)(F)F)c1)c1nc(I)nn1-c1ncccn1 (centres unmarked) [Example I-021]
- pest or weed control at 32 µg/disc, 100 g/ha [3]: 100%
- mortality at 100 g/ha [6]: 90%
- mortality at 100 g/ha [4]: 100%
- mortality at 20 mg/m2 [5]: 80 to 100%
